Here are results for twelve molecules from patent publication US10744128B2, “6-(5-membered heteroaryl)isoquinolin-3-yl-(5-membered heteroaryl) carboxamides and preparation and use thereof” (Samumed, LLC, priority 2017, dated 2020).

Molecules are shown by their SMILES. Where two headings read alike, the source gives them in different places. Where only a bound is given, the exact number is not on record here.

Experiment [1] concerns Wnt-responsive promoter (Sp5-Luc reporter) in SW480 colon carcinoma cells. Briefly: Sp5-Luc reporter gene screening assay for Wnt activity in SW480 cells. The following applies: Homo sapiens, 36 to 48 hours, luminescence. The format is cell-based, human. From the text: The screening assay for Wnt activity is described as follows. Reporter cell lines can be generated by stably transducing cancer cell lines (e.g., colon cancer) or primary cells (e.g., IEC-6 intestinal cells) with a lentiviral construct that includes a Wnt-responsive promoter driving expression of the firefly luciferase gene.
SW480 colon carcinoma cells were transduced with a lentiviral vector expressing luciferase with a human Sp5 promoter consisting of a sequence of eight TCF/LEF binding sites. SW480 cells stably expressing the Sp5-Luc reporter gene and a hygromycin resistance gene were selected by treatment with 150 μg/mL of hygromycin for 7 days. These stably transduced SW480 cells were expanded in cell culture and used for all further screening activities. […] For Sp5-Luc reporter gene assays, the cells were plated at 4,000 cells/well in 384-well plates with a DMEM medium containing 1% fetal bovine serum, and 1% Penicillin-Streptomycin and incubated for 36 to 48 hours at 37° C. and 5% CO2. Following incubation, 15 μl of BriteLite Plus luminescence reagent (Perkin Elmer) was added to each well of the 384-well assay plates. The plates were placed on an orbital shaker for 2 min and then luminescence was quantified using the Envision (Perkin Elmer) plate reader. Readings were normalized to DMSO only treated cells, and normalized activities were utilized for EC50 calculations using the dose-response log (inhibitor) vs. response −variable slope (four parameters) nonlinear regression feature available in GraphPad Prism 5.0 (or Dotmatics).
Background: Reporter assays use an easily measured gene product as a stand-in for the process of interest.

The target in a further experiment is recombinant GSK3β kinase (Homo sapiens (Human), UniProt P49841). Put plainly: GSK3β kinase assay (Ser/Thr 09 peptide Z-lyte, FRET). It counts as biochemical.
Experiment [2] deals with SW480 colon carcinoma cells. Put plainly: Cell viability assay (CellTiter-Glo) in SW480 cells. The format is cell-based, human. The settings on record: Homo sapiens, 96 h, four days. As for the experimental part:
SW480 colon carcinoma cells were transduced with a lentiviral vector expressing luciferase with a human Sp5 promoter consisting of a sequence of eight TCF/LEF binding sites. SW480 cells stably expressing the Sp5-Luc reporter gene and a hygromycin resistance gene were selected by treatment with 150 µg/mL of hygromycin for 7 days. These stably transduced SW480 cells were expanded in cell culture and used for all further screening activities.
For the Cell Viability Assays, the cells were plated at 2,000 cells/well in 384-well plates with a DMEM medium containing 1% fetal bovine serum, and 1% Penicillin-Streptomycin and incubated for […] at 37° C. and 5% CO2. Eight replicates of DMSO-treated cells served as controls and cells treated with compound were performed in duplicate.
After incubation, 10 μL of CellTiter-Glo (Promega) was added to each well allowed to incubate for approximately 12 minutes. This reagent “results in cell lysis and generation of a luminescent signal proportional to the amount of ATP present. The amount of ATP is directly proportional to the number of cells present in culture, in agreement with previous reports. The CellTiter-Glo® Assay generates a “glow-type” luminescent signal, produced by the luciferase reaction (Promega.com)”.

Experiment [3] deals with primary human fibroblasts derived from IPF patients (LL29 cells), α-smooth muscle actin. Put plainly: Inhibition of fibrotic process: αSMA in TGF-β1 treated LL29 fibroblasts. It counts as cell-based. The following applies: Homo sapiens, Fibroblast; for EC50: 96 h, LL29 cells, TGF-β1 20 ng/mL, 4 days, % cells positive for αSMA. As for the experimental part: Representative compounds were screened using primary human fibroblasts (derived from IPF patients) treated with TGF-β1 to determine their ability to inhibit the fibrotic process.
LL29 cells were plated at 1,500 cells/well in 70 μL/well F12 medium supplemented with 1% Fetal Bovine Serum. […] Wells treated with TGF-β1 and containing DMSO were used as positive control, and cells with only DMSO were negative control. […] Following incubation for 4 days, SYTOX green nucleic acid stain (Life Technologies [Thermo Fisher Scientific]) was added to the wells at a final concentration of 1 μM and incubated at room temperature for 30 min.

A further experiment deals with IL-6. Briefly: IL-6 inhibition in LPS-stimulated human peripheral blood mononuclear cells (HTRF). The format is cell-based. The settings on record: Homo sapiens, PBMC; for EC50: huPBMCs, LPS 50 ng/mL, 22 hours, IL-6 HTRF; for inhibition at 10 µM: read-out: percent inhibition at 10 μM. As for the experimental part:
Fresh Normal PB MNC (Catalog # PB001, AllCells, Alameda, Calif.) were shipped overnight at 4° C. and resuspended in Roswell Park Memorial Institute (RPMI) 1640 Medium, with GlutaMAX Supplement (Catalog #61870127, ThermoFisher Scientific, Waltham, Mass.) supplemented with 1% Penicillin-Streptomycin (Catalog #15140163, ThermoFisher Scientific, Waltham, Mass.) and 1% fetal bovine serum (FBS) (Catalog #16140089, ThermoFisher Scientific, Waltham, Mass.) assay media.
Fresh normal human peripheral blood mononuclear cells (huPBMCs) were resuspended in 1% FBS-RPMI assay media with 1% Penicillin-Streptomycin 1% to a cell concentration of 1×10e6 cells/mL. […] 50 ng/mL of Lipopolysaccharides from Escherichia coli 0111:B4 (Catalog #L5293-2ML, Sigma-Aldrich, St. Louis, Mo.) was added after 2 hours and cells were incubated for another 22 hours at 37° C.-5% CO2. After 22 hour incubation, a mixture of anti-IL6 XL665 and anti-IL-6 Cryptate diluted in reconstitution buffer (Catalog #62IL6PEC, Cisbio Inc., Bedford, Mass.) was added to each well. Following incubation for 3 hours at room temperature, Homogeneous Time-Resolved Fluorescence (HTRF) was measured using the Envision (Perkin Elmer, Shelton, Conn.) at 665 nm and […]. The ratio of fluorescence at 665 nm to 620 nm was used as a readout for IL-6 quantification. All samples were processed in duplicate. Readings were normalized to DMSO treated cells and normalized activities were utilized for EC50 calculations. EC50 was determined using software generated by Dotmatics Limited (Windhill Bishops Stortford Herts, UK) using the Levenberg-Marquardt 4 parameter fitting procedure with finite different gradients.

The target in experiment [4] is recombinant DYRK1A kinase (Homo sapiens (Human), UniProt Q13627). Put plainly: DYRK1A kinase assay (Ser/Thr 18 peptide Z-lyte, FRET).
Where [5] appears, read: GSK3β kinase, 46 μM ATP, one hour, method calls values IC50.
[6] abbreviates: DYRK1A kinase, 30 μM ATP, one hour, method calls values IC50.

Chain of recombinant GSK3β kinase (P49841 whole entry): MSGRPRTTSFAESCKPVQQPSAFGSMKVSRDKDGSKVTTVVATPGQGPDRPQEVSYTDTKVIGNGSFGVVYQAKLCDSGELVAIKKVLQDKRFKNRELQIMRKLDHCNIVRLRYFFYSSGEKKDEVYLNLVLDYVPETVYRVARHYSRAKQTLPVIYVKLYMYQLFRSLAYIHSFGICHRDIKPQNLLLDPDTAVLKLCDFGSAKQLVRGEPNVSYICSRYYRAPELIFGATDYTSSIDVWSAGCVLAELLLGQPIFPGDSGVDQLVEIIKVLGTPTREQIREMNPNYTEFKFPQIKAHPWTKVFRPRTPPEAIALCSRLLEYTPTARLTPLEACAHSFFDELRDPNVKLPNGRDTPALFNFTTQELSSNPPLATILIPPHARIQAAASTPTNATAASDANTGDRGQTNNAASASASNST

In the case of `Cn1cc(-c2ccc3cnc(NC(=O)c4cnn(C5CCN(CCF)CC5)c4)cc3c2)cn1` [Compound 7, 1-(1-(2-Fluoroethyl)piperidin-4-yl)-N-(6-(1-methyl-1H-pyrazol-4-yl)isoquinolin-3-yl)-1H-pyrazole-4-carboxamide], the EC50 (in general, the concentration at which the effect is half-maximal) amounted to 35 nM in experiment [1]; 1500 nM at recombinant GSK3β kinase (setting [5]); 77 nM in experiment [2]; 47 nM in experiment [3]; 145 nM in the experiment with IL-6; 3 nM in experiment [4] (setting [6]).
As to `Cn1cc(-c2ccc3cnc(NC(=O)c4cnn(C5CCN(C6CC6)CC5)c4)cc3c2)cn1` [Compound 9, 1-(1-cyclopropylpiperidin-4-yl)-N-(6-(1-methyl-1H-pyrazol-4-yl)isoquinolin-3-yl)-1H-pyrazole-4-carboxamide], the EC50 was 39 nM in experiment [1]; 1660 nM at recombinant GSK3β kinase (setting [5]); 104 nM in experiment [2]; over 10000 nM in experiment [3]; 1100 nM in the experiment on IL-6; 2 nM in experiment [4] (setting [6]). In experiment [3] (read-out: percent inhibition at 10 μM), the inhibition (commonly the relative decrease from the control value, in per cent) at 10 µM was 33.4%.
`CN1CCC(n2cc(C(=O)Nc3cc4cc(-c5cnn(C)c5)ccc4cn3)nn2)CC1` [Compound 12, N-(6-(1-Methyl-1H-pyrazol-4-yl)isoquinolin-3-yl)-1-(1-methylpiperidin-4-yl)-1H-1,2,3-triazole-4-carboxamide]: the EC50 in experiment [1] came out at 105 nM; on recombinant GSK3β kinase (setting [5]), 3630 nM; in experiment [2], 470 nM; in experiment [3], 983 nM; with IL-6, 3750 nM; in experiment [4] (setting [6]), 9 nM.
Regarding `Cn1cc(-c2ccc3cnc(NC(=O)c4cn(C5CCN(CCF)CC5)nn4)cc3c2)cn1` [Compound 13, 1-(1-(2-Fluoroethyl)piperidin-4-yl)-N-(6-(1-methyl-1H-pyrazol-4-yl)isoquinolin-3-yl)-1H-1,2,3-triazole-4-carboxamide], the EC50 in experiment [1] worked out at 120 nM; on recombinant GSK3β kinase (setting [5]) it was 2080 nM; in experiment [2], 485 nM; in experiment [3] it was 260 nM; with IL-6 it was 3390 nM; in experiment [4] (setting [6]), 5 nM.
`CC(C)N1CCC(n2cc(C(=O)Nc3cc4cc(-c5cnn(C)c5)ccc4cn3)nn2)CC1` [Compound 14, 1-(1-Isopropylpiperidin-4-yl)-N-(6-(1-methyl-1H-pyrazol-4-yl)isoquinolin-3-yl)-1H-1,2,3-triazole-4-carboxamide]: the EC50 in experiment [1] is 95 nM; at recombinant GSK3β kinase (setting [5]), 2750 nM; in experiment [2] it was 240 nM; in experiment [3], 410 nM; with IL-6, over 10000 nM; in experiment [4] (setting [6]) it was 6 nM. The inhibition at 10 µM in the experiment on IL-6 is 46%.
Consider `[2H]C([2H])([2H])n1cc(-c2ccc3cnc(NC(=O)c4coc(C5CCNCC5)n4)cc3c2)cn1` [Compound 16, N-(6-(1-(Methyl-d3)-1H-pyrazol-4-yl)isoquinolin-3-yl)-2-(piperidin-4-yl) oxazole-4-carboxamide], for which the EC50 stood at 115 nM in experiment [1]; 769 nM at recombinant GSK3β kinase; 113 nM in experiment [2]; 312 nM in experiment [3]; 1070 nM with IL-6; 16 nM in experiment [4].
For the molecule `CN(C)C1CN(c2nc(C(=O)Nc3cc4cc(-c5cnn(C)c5)ccc4cn3)co2)C1` [Compound 18, 2-(3-(Dimethylamino)azetidin-1-yl)-N-(6-(1-methyl-1H-pyrazol-4-yl)isoquinolin-3-yl)oxazole-4-carboxamide], the EC50 in experiment [1] is 1040 nM; on recombinant GSK3β kinase (setting [5]) it was 1260 nM; in experiment [2], 3910 nM; in experiment [3], 481 nM; in the experiment with IL-6, over 10000 nM; in experiment [4] (setting [6]), 15 nM. The inhibition at 10 µM in the experiment on IL-6 was 9%.
With `Cn1cc(-c2ccc3cnc(NC(=O)c4coc(C5CCNCC5)n4)cc3c2)cn1` [Compound 19, N-(6-(1-Methyl-1H-pyrazol-4-yl)isoquinolin-3-yl)-2-(piperidin-4-yl)oxazole-4-carboxamide], the EC50 stood at 106 nM in experiment [1]; 979 nM on recombinant GSK3β kinase (setting [5]); 300 nM in experiment [2]; 170 nM in experiment [3]; 695 nM in the experiment with IL-6; 12 nM in experiment [4] (setting [6]).
For the molecule `CN1CCC(c2nc(C(=O)Nc3cc4cc(-c5cnn(C)c5)ccc4cn3)co2)CC1` [Compound 20, N-(6-(1-Methyl-1H-pyrazol-4-yl)isoquinolin-3-yl)-2-(1-methylpiperidin-4-yl)oxazole-4-carboxamide], the EC50 in experiment [1] turned out to be 107 nM; at recombinant GSK3β kinase (setting [5]), 3240 nM; in experiment [2] it was 427 nM; in experiment [3], 2000 nM; in the experiment on IL-6, 3690 nM; in experiment [4] (setting [6]) it was 15 nM.
On to `CC(C)N1CCC(c2nc(C(=O)Nc3cc4cc(-c5cnn(C)c5)ccc4cn3)co2)CC1` [Compound 22, 2-(1-Isopropylpiperidin-4-yl)-N-(6-(1-methyl-1H-pyrazol-4-yl)isoquinolin-3-yl)oxazole-4-carboxamide], for which the EC50 in experiment [1] was 180 nM; on recombinant GSK3β kinase (setting [5]), 2590 nM; in experiment [2] it was 782 nM; in experiment [3], 2910 nM; in the experiment with IL-6, over 10000 nM; in experiment [4] (setting [6]), 16 nM. Besides, in the experiment on IL-6, the inhibition at 10 µM was 27.8%.
On to `CN1CCN(c2nc(C(=O)Nc3cc4cc(-c5cnn(C)c5)ccc4cn3)co2)CC1` [Compound 23, N-(6-(1-Methyl-1H-pyrazol-4-yl)isoquinolin-3-yl)-2-(4-methylpiperazin-1-yl)oxazole-4-carboxamide], for which the EC50 in experiment [1] was 1020 nM; at recombinant GSK3β kinase (setting [5]), 2180 nM; in experiment [2], 3730 nM; in experiment [3] it was 325 nM; with IL-6, over 10000 nM; in experiment [4] (setting [6]), 18 nM. Also, the inhibition at 10 µM in the experiment with IL-6 worked out at 5.5%.
In the case of `CN(C)C1CN(c2ncc(C(=O)Nc3cc4cc(-c5cnn(C)c5)ccc4cn3)s2)C1` [Compound 24, 2-(3-(Dimethylamino)azetidin-1-yl)-N-(6-(1-methyl-1H-pyrazol-4-yl)isoquinolin-3-yl)thiazole-5-carboxamide], the EC50 in experiment [1] was determined as 1320 nM; on recombinant GSK3β kinase (setting [5]), 1760 nM; in experiment [2], 1640 nM; in experiment [3] it was 2750 nM; in the experiment with IL-6, 3020 nM; in experiment [4] (setting [6]), 2 nM.
